Source: US20260124214A1, “HETEROCYCLIC COMPOUNDS FOR USE IN THE TREATMENT OF CANCER” (ARTIOS PHARMA LIMITED, priority 2021, published 2026)
Structures can show the parent of a compound that is named as a salt.

Biological target: T1, Human Polθ polymerase domain (aa1820-2590) (Homo sapiens, UniProt O75417)
T1 construct: Human Polθ polymerase domain (aa1820-2590) was expressed in E. Coli; made in house; host or cells: E. coli
T1 sequence (O75417 1820-2590): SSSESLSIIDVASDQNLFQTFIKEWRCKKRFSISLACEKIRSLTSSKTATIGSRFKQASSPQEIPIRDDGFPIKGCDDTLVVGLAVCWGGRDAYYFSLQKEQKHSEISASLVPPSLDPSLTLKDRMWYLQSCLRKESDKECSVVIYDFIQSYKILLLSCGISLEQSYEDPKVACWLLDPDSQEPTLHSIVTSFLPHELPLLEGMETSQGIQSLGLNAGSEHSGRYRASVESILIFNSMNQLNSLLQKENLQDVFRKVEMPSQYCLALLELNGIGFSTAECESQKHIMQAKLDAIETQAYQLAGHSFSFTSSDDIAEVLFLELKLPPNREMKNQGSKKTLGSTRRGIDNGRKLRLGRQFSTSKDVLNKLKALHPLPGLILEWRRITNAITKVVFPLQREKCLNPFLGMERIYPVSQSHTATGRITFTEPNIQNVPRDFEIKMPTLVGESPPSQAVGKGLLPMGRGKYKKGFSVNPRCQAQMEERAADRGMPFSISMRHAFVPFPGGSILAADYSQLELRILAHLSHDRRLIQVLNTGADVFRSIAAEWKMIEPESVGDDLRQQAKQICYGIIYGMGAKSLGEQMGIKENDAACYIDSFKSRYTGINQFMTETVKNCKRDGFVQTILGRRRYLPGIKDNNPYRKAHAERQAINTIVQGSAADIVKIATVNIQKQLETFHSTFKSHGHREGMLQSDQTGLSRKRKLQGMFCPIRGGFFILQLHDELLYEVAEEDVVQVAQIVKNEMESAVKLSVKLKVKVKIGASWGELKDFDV
Experiment: Polθ Polymerase Domain WT KI Assay (PicoGreen)
Format: biochemical
Conditions: 100 nM DNA substrate, 0.156 nM Polθ, initial rates vs inhibitor concentration
Protocol: A PicoGreen assay was used to measure the KI values of reversible compounds that inhibit the activity of Polθ in vitro.
Human Polθ polymerase domain (aa1820-2590) was expressed in E. Coli, purified, aliquoted and stored at −80° C. until required. Polθ substrate was generated from a 1.2:1 mix of DNA II Short to DNA II Long to give a final concentration of […] substrate in annealing buffer (20 mM Tris pH 7.5, 50 mM NaCl). The substrate was heated in 50 mL aliquots to 95° C. in a heating block for 5 min before the heating block switched off, the reaction left to cool to rt and stored at −20° C. until required.
Assay measurements were performed with 1× buffer comprising 25 mM Tris pH 7.5, 12.5 mM NaCl, […], 5% (v/v) glycerol, 0.01% v/v Triton x-100, 0.1 mg/ml BSA, 1 mM DTT. […] 100 nL of 23×1:1.5-fold serial dilutions and a DMSO only control were dispensed using the Tecan dispenser into Greiner 384 well black low volume plates (product code 784076). DMSO concentration was maintained at 1% of the final assay volume by back filling with DMSO.
To stop the reaction, 5 μL of a solution containing 25 mM Tris-HCl PH 7.5 and 20 mM EDTA was added at […] (t=0, 15, 30, 60, 90, 120, 150, 180 mins) using the Tempest's time delay function. The plates were covered during the time course to prevent evaporation. After completing the assay, 5 μL of detection reagent (25 mM Tris-HCl pH 7.5 and 2.5% (v/v) PicoGreen) was dispensed into the wells using a Tempest liquid handler (Formulatrix) and plates subsequently read on the CLARIOstar Plus (BMG Labtech) using the default optical settings for fluorescein and the auto gain/focus settings.
All data analysis was carried out using GraphPad Prism V.8 (GraphPad Software Inc, San Diego, CA). Time course data for each inhibitor concentration were fitted to the linear regression model in GraphPad Prism. Any time points where the control (DMSO only) reaction was no longer linear were excluded from the analysis. The initial rates (slopes) obtained from the linear regression were then plotted against inhibitor concentration and fitted to an inhibitor vs. response variable slope (four parameter) model on GraphPad Prism to determine the KI values.

## Cc1cc(C(F)(F)F)cc(N2C(=O)C[C@@H]3CN(C[C@@H]4CCNC4)c4c(C)cccc4N(C)C(=O)[C@H]32)n1 [Example 103, (3aR,11aS)-6,10-Dimethyl-1-(6-methyl-4-(trifluoromethyl)pyridin-2-yl)-5-(((R)-pyrrolidin-3-yl)methyl)-1,3a,4,5,10,11a-hexahydro-2H-benzo[b]pyrrolo[2,3-f][1,4]diazocine-2,11(3H)-dione hydrochloride]
  Ki: 2.43 nM

## CC(=O)N1CCN(CCN2C[C@H]3CC(=O)N(c4cc(C(F)(F)F)cc(C)n4)[C@@H]3C(=O)N(C)c3cccc(C)c32)CC1 [Example 55, (3aR,11aS)-5-(2-(4-Acetylpiperazin-1-yl)ethyl)-6,10-dimethyl-1-(6-methyl-4-(trifluoromethyl)pyridin-2-yl)-1,3a,4,5,10,11a-hexahydro-2H-benzo[b]pyrrolo[2,3-f][1,4]diazocine-2,11(3H)-dione hydrochloride]
  Ki: 0.891 nM

## Cc1cc(C(F)(F)F)cc(N2C(=O)C[C@@H]3CN(CCN4CCNCC4)c4c(Cl)cccc4N(C)C(=O)[C@H]32)n1 [Example 19, (3aR,11aS)-6-Chloro-10-methyl-1-(6-methyl-4-(trifluoromethyl)pyridin-2-yl)-5-(2-(piperazin-1-yl)ethyl)-1,3a,4,5,10,11a-hexahydro-2H-benzo[b]pyrrolo[2,3-f][1,4]diazocine-2,11(3H)-dione]
  Ki: 1.87 nM

## Cc1cc(C(F)(F)F)cc(N2C(=O)C[C@@H]3CN(C[C@H]4COCCN4)c4c(F)cccc4N(C)C(=O)[C@H]32)n1 (racemic) [Example 106b, (3aR,11aS)-6-Fluoro-10-methyl-1-(6-methyl-4-(trifluoromethyl)pyridin-2-yl)-5-(((S/R)-morpholin-3-yl)methyl)-1,3a,4,5,10,11a-hexahydro-2H-benzo[b]pyrrolo[2,3-f][1,4]diazocine-2,11(3H)-dione]
  Ki: 28.2 nM

## CC(=O)N1CCN(CCN2C[C@H]3CC(=O)N(c4cc(C(F)(F)F)cc(C)n4)[C@@H]3C(=O)N(C)c3cccc(Cl)c32)CC1 [Example 33, (3aR,11aS)-5-(2-(4-Acetylpiperazin-1-yl)ethyl)-6-chloro-10-methyl-1-(6-methyl-4-(trifluoromethyl)pyridin-2-yl)-1,3a,4,5,10,11a-hexahydro-2H-benzo[b]pyrrolo[2,3-f][1,4]diazocine-2,11(3H)-dione]
  Ki: 1.73 nM

## Cc1cc(C(F)(F)F)cc(N2C(=O)C[C@@H]3CN(CCN4CC[C@H](N(C)C)[C@H](F)C4)c4c(Cl)cccc4N(C)C(=O)[C@H]32)n1 [Example 35, (3aR,11aS)-6-Chloro-5-(2-((3R,4S)-4-(dimethylamino)-3-fluoropiperidin-1-yl)ethyl)-10-methyl-1-(6-methyl-4-(trifluoromethyl)pyridin-2-yl)-1,3a,4,5,10,11a-hexahydro-2H-benzo[b]pyrrolo[2,3-f][1,4]diazocine-2,11(3H)-dione hydrochloride]
  Ki: 1.09 nM

## Cc1cc(C(F)(F)F)cc(N2C(=O)C[C@@H]3CN(CC4CCCN4C)c4c(Cl)cccc4N(C)C(=O)[C@H]32)n1 (single isomer, unassigned) [Example 118a]
  Ki: 8.5 nM

## Cc1cc(C(F)(F)F)cc(N2C(=O)C[C@@H]3CN(CCN4CCN(CCF)CC4)c4c(Cl)cccc4N(C)C(=O)[C@H]32)n1 [Example 26, (3aR,11aS)-6-Chloro-5-(2-(4-(2-fluoroethyl)piperazin-1-yl)ethyl)-10-methyl-1-(6-methyl-4-(trifluoromethyl)pyridin-2-yl)-1,3a,4,5,10,11a-hexahydro-2H-benzo[b]pyrrolo[2,3-f][1,4]diazocine-2,11(3H)-dione]
  Ki: 2.72 nM

## Cc1cc(C(F)(F)F)cc(N2C(=O)C[C@@H]3CN(Cc4ccc(C5CCCN5C)cc4)c4c(F)cccc4N(C)C(=O)[C@H]32)n1 (single isomer, unassigned) [Example 125a, hydrochloride]
  Ki: 7.92 nM

## Cc1cc(C(F)(F)F)cc(N2C(=O)C[C@@H]3CN(CCN4CCOC[C@H]4C)c4c(Cl)cccc4N(C)C(=O)[C@H]32)n1 [Example 24, (3aR,11aS)-6-Chloro-10-methyl-1-(6-methyl-4-(trifluoromethyl)pyridin-2-yl)-5-(2-((R)-3-methylmorpholino)ethyl)-1,3a,4,5,10,11a-hexahydro-2H-benzo[b]pyrrolo[2,3-f][1,4]diazocine-2,11(3H)-dione]
  Ki: 1.78 nM

## Cc1cc(C(F)(F)F)cc(N2C(=O)C[C@@H]3CN(Cc4cccnc4)c4c(C)cccc4N(C)C(=O)[C@H]32)n1 [Example 115, (3aR,11aS)-6,10-Dimethyl-1-(6-methyl-4-(trifluoromethyl)pyridin-2-yl)-5-(pyridin-3-ylmethyl)-1,3a,4,5,10,11a-hexahydro-2H-benzo[b]pyrrolo[2,3-f][1,4]diazocine-2,11(3H)-dione]
  Ki: 1.08 nM

## Cc1cc(C(F)(F)F)cc(N2C(=O)C[C@@H]3CN(CCN4CC5(COC5)C4)c4c(Cl)cccc4N(C)C(=O)[C@H]32)n1 [Example 29, (3aR,11aS)-5-(2-(2-Oxa-6-azaspiro[3.3]heptan-6-yl)ethyl)-6-chloro-10-methyl-1-(6-methyl-4-(trifluoromethyl)pyridin-2-yl)-1,3a,4,5,10,11a-hexahydro-2H-benzo[b]pyrrolo[2,3-f][1,4]diazocine-2,11(3H)-dione]
  Ki: 1.42 nM

## Cc1cc(C(F)(F)F)cc(N2C(=O)C[C@@H]3CN(c4ccccn4)c4c(F)cccc4N(C)C(=O)[C@H]32)n1 [Example 134, (3aR,11aS)-6-Fluoro-10-methyl-1-(6-methyl-4-(trifluoromethyl)pyridin-2-yl)-5-(pyridin-2-yl)-1,3a,4,5,10,11a-hexahydro-2H-benzo[b]pyrrolo[2,3-f][1,4]diazocine-2,11(3H)-dione]
  Ki: 104 nM

## Cc1cc(C(F)(F)F)cc(N2C(=O)C[C@@H]3CN(CC4COCCN4)c4c(C)cccc4N(C)C(=O)[C@H]32)n1 (single isomer, unassigned) [Example 112a]
  Ki: 4.14 nM

## Cc1cc(C(F)(F)F)cc(N2C(=O)C[C@@H]3CN(C[C@H]4COCCN4C)c4c(Cl)cccc4N(C)C(=O)[C@H]32)n1 (racemic) [Example 119a, (3aR,11aS)-6-Chloro-10-methyl-1-(6-methyl-4-(trifluoromethyl)pyridin-2-yl)-5-(((S/R)-4-methylmorpholin-3-yl)methyl)-1,3a,4,5,10,11a-hexahydro-2H-benzo[b]pyrrolo[2,3-f][1,4]diazocine-2,11(3H)-dione]
  Ki: 1.28 nM

## Cc1cc(C(F)(F)F)cc(N2C(=O)C[C@@H]3CNc4c(Cl)cccc4N(C)C(=O)[C@H]32)n1 [Example 2, (3aR,11aS)-6-Chloro-10-methyl-1-(6-methyl-4-(trifluoromethyl)pyridin-2-yl)-1,3a,4,5,10,11a-hexahydro-2H-benzo[b]pyrrolo[2,3-f][1,4]diazocine-2,11(3H)-dione]
  Ki: 0.847 nM

## Cc1cc(C(F)(F)F)cc(N2C(=O)C[C@@H]3CN(Cc4cc5n(n4)CCN(C)C5)c4c(C)cccc4N(C)C(=O)[C@H]32)n1 [Example 113, (3aR,11aS)-6,10-Dimethyl-5-((5-methyl-4,5,6,7-tetrahydropyrazolo[1,5-a]pyrazin-2-yl)methyl)-1-(6-methyl-4-(trifluoromethyl)pyridin-2-yl)-1,3a,4,5,10,11a-hexahydro-2H-benzo[b]pyrrolo[2,3-f][1,4]diazocine-2,11(3H)-dione]
  Ki: 0.237 nM
